Measured values reported in paper PMC12638379, “An innovative approach to development of new pyrazolylquinolin-2-one hybrids as dual EGFR and BRAF^V600E inhibitors” (Molecular Diversity, 2025).
Where two headings read alike, the source gives them in different places.

System: NCI 60 cancer cell lines
Experiment: NCI anticancer screening over a panel of 60 cancer cells, single concentration 10 µM
Format: cell-based, human
Details: Homo sapiens, read-out: % Growth Inhibition (GI %)
Summary of the method: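 Primary single-dose screen at 10 µM over the NCI panel of 60 human tumour cell lines (leukemia, CNS, lung, colon, kidney, ovary, breast, prostate). The standard NCI Developmental Therapeutics Program protocol was used.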

C/C(=N\Nc1ccc(C(=O)O)cc1)c1cnn(-c2cc(=O)[nH]c3ccccc23)c1C [Compound 4f, (E)-4-(2-(1-(5-methyl-1-(2-oxo-1,2-dihydroquinolin-4-yl)-1H-pyrazol-4-yl)ethylidene) hydrazineyl)benzoic acid]
inhibition at 10 µM (786-0, Renal cancer 786-0, 10 μM): < 5% | inhibition at 10 µM (A498, Renal cancer A498, 10 μM): < 5% | inhibition at 10 µM (A549, Non-small cell lung cancer A549/ATCC, 10 μM): < 5% | inhibition at 10 µM (ACHN, Renal cancer ACHN, 10 μM): 5.83% | inhibition at 10 µM (BT-549, Breast cancer BT-549, 10 μM): < 5% | inhibition at 10 µM (CAKI-1, Renal cancer CAKI-1, 10 μM): 16.1% | inhibition at 10 µM (CCRF-CEM, Leukemia CCRF-CEM, 10 μM): < 5% | inhibition at 10 µM (COLO 205, Colon cancer COLO 205, 10 μM): < 5% | inhibition at 10 µM (DU-145, Prostate cancer DU-145, 10 μM): < 5% | inhibition at 10 µM (EKVX, Non-small cell lung cancer EKVX, 10 μM): < 5% | inhibition at 10 µM (HCC 2998, Colon cancer HCC-2998, 10 μM): < 5% | inhibition at 10 µM (HCT-15, Colon cancer HCT-15, 10 μM): < 5% | inhibition at 10 µM (HCT-116, Colon cancer HCT-116, 10 μM): < 5% | inhibition at 10 µM (HL-60, Leukemia HL-60(TB), 10 μM): < 5% | inhibition at 10 µM (HOP-62, Non-small cell lung cancer HOP-62, 10 μM): 8.55% | inhibition at 10 µM (HOP-92, Non-small cell lung cancer HOP-92, 10 μM): 79.8% | inhibition at 10 µM (HT-29, Colon cancer HT29, 10 μM): < 5% | inhibition at 10 µM (Hs-578T, Breast cancer HS 578T, 10 μM): 12.3% | inhibition at 10 µM (IGROV-1, Ovarian cancer IGROV1, 10 μM): < 5% | inhibition at 10 µM (K562, Leukemia K-562, 10 μM): < 5% | inhibition at 10 µM (KM12, Colon cancer KM12, 10 μM): < 5% | inhibition at 10 µM (LOX IMVI, Melanoma LOX IMVI, 10 μM): 10.8% | inhibition at 10 µM (Leukemia SR, 10 μM): 12.2% | inhibition at 10 µM (MCF7, Breast cancer MCF7, 10 μM): 5.99% | inhibition at 10 µM (MDA-MB-231, Breast cancer MDA-MB-231/ATCC, 10 μM): 12.5% | inhibition at 10 µM (MDA-MB-435, Melanoma MDA-MB-435, 10 μM): < 5% | inhibition at 10 µM (MDA-MB-468, Breast cancer MDA-MB-468, 10 μM): < 5% | inhibition at 10 µM (MOLT-4, Leukemia MOLT-4, 10 μM): < 5% | inhibition at 10 µM (Melanoma M14, 10 μM): 8.95% | inhibition at 10 µM (Melanoma MALM-3M, 10 μM): 9.22% | inhibition at 10 µM (NCI-H23, Non-small cell lung cancer NCI-H23, 10 μM): 7.19% | inhibition at 10 µM (NCI-H226, Non-small cell lung cancer NCI-H226, 10 μM): 10.9% | inhibition at 10 µM (NCI-H322M, Non-small cell lung cancer NCI-H322M, 10 μM): < 5% | inhibition at 10 µM (NCI-H460, Non-small cell lung cancer NCI-H460, 10 μM): < 5% | inhibition at 10 µM (NCI-H522, Non-small cell lung cancer NCI-H522, 10 μM): 13.9% | inhibition at 10 µM (NCI/ADR-RES, Ovarian cancer NCI/ADR-RES, 10 μM): < 5% | inhibition at 10 µM (OVCAR-3, Ovarian cancer OVCAR-3, 10 μM): < 5% | inhibition at 10 µM (OVCAR-4, Ovarian cancer OVCAR-4, 10 μM): 7.33% | inhibition at 10 µM (OVCAR-5, Ovarian cancer OVCAR-5, 10 μM): < 5% | inhibition at 10 µM (OVCAR-8, Ovarian cancer OVCAR-8, 10 μM): < 5% | inhibition at 10 µM (Prostate cancer PC-3, 10 μM): 12.4% | inhibition at 10 µM (RPMI-8226, Leukemia RPMI-8226, 10 μM): < 5% | inhibition at 10 µM (RXF 393, Renal cancer RXF 393, 10 μM): 11.1% | inhibition at 10 µM (SF-268, CNS Cancer SF-268, 10 μM): < 5% | inhibition at 10 µM (SF-295, CNS Cancer SF-295, 10 μM): < 5% | inhibition at 10 µM (SF-539, CNS Cancer SF-539, 10 μM): < 5% | inhibition at 10 µM (SK-MEL-2, Melanoma SK-MEL-2, 10 μM): < 5% | inhibition at 10 µM (SK-MEL-5, Melanoma SK-MEL-5, 10 μM): < 5%
